Assay results: patent US6362183B1, “Aromatic sulfonyl alpha-hydroxy hydroxamic acid compounds” (G. D. Searle & Company, priority 1997, dated 2002)

What was measured:
[1] = biological target: T1, recombinant human MMP-1 (Homo sapiens, UniProt P03956); assay: In vitro metalloprotease inhibition, fluorogenic peptide assay; format: biochemical; details: APMA-activated enzyme, MCA peptide substrate 4 μM, room temperature, pH 7.5
T1 construct: made in house; host or cells: transfected HT-1080 cells
T1 sequence (P03956 100-469): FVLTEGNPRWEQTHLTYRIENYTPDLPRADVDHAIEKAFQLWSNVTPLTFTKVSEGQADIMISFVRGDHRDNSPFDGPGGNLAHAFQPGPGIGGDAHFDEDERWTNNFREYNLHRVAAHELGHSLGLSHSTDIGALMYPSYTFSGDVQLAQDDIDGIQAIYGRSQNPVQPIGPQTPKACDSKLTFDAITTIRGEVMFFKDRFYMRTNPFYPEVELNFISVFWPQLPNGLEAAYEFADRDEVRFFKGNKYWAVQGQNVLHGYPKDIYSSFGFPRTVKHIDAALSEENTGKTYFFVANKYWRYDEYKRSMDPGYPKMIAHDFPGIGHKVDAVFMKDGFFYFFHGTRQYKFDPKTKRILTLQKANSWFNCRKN
Procedure: (§1) Briefly, 4-aminophenylmercuric acetate (APMA) or trypsin activated MMPs were incubated with various concentrations of the inhibitor compound at room temperature for 5 minutes.
(§2) More specifically, recombinant human MMP-13 and MMP-1 enzymes were prepared in laboratories of the assignee. MMP-13 was expressed in baculovirus as a proenzyme, and purified first over a heparin agarose column and then over a chelating zinc chloride column. The proenzyme was activated by APMA for use in the assay. MMP-1 expressed in transfected HT-1080 cells was provided by Dr. Howard Welgus of Washington University, St. Louis, Mo. The enzyme was also activated using APMA and was then purified over a hydroxamic acid column.
(§3) MCA-ProLeuGlyLeuDpaAlaArgNH^2, wherein MCA is methoxycoumarin and Dpa is 3-(2,4-dinitrophenyl)-L-2,3-diaminopropionyl alanine.
(§4) The buffer used for assays contained 100 mM Tris-HCl, 100 mM NaCl, 10 mM CaCl2 and 0.05 percent polyethyleneglycol (23) lauryl ether at a pH value of 7.5.

[2] = biological target: T2, recombinant human MMP-13 (Homo sapiens, UniProt P45452); assay: as above; format: biochemical; details: for IC50: APMA-activated enzyme, MCA peptide substrate 4 μM, room temperature, pH 7.5
T2 construct: made in house
Procedure: as §1, §2, §3, §4

[3] = biological target: T3, MMP-2 (Homo sapiens, UniProt P08253); assay: as above; format: biochemical; details: MCA peptide substrate 4 μM, room temperature, pH 7.5
T3 sequence (P08253 110-660): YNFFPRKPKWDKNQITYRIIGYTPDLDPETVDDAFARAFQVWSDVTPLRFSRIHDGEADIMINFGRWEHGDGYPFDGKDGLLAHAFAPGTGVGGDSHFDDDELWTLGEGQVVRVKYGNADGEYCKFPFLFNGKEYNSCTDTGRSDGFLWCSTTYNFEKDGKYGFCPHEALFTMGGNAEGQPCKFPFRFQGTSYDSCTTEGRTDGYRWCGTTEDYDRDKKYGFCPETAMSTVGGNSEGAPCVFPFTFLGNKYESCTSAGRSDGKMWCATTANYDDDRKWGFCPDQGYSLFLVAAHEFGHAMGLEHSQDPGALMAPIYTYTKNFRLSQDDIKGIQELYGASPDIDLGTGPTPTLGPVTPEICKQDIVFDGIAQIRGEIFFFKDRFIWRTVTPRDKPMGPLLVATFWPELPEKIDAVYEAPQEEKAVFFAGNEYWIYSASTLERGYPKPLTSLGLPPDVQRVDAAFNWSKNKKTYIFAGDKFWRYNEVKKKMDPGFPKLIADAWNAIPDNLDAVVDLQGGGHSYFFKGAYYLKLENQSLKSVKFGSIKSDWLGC
Procedure: as §1, §3, §4

[4] = biological target: MMP-3 (Homo sapiens, UniProt P08254); assay: as above; format: biochemical; details: MCA peptide substrate 4 μM, room temperature, pH 7.5
Procedure: as §1, §3, §4

[5] = biological target: MMP-8 (Homo sapiens, UniProt P22894); assay: as above; format: biochemical; details: MCA peptide substrate 4 μM, room temperature, pH 7.5
Procedure: as §1, §3, §4

[6] = biological target: MMP-9 (Homo sapiens, UniProt P14780); assay: as above; format: biochemical; details: MCA peptide substrate 4 μM, room temperature, pH 7.5
Procedure: as §1, §3, §4

[7] = system: angiogenesis in the cornea of a mouse; assay: In vivo angiogenesis assay (corneal micropocket assay); set-up: species or system mouse (C57Bl/6); details: area of corneal neovascularization, bFGF pellet, dosed daily, scored at day five; exemplary dose 50 mg/kg bid, po
Procedure: The study of angiogenesis depends on a reliable and reproducible model for the stimulation and inhibition of a neovascular response. The corneal micropocket assay provides such a model of angiogenesis in the cornea of a mouse. See, A Model of Angiogenesis in the Mouse Cornea; Kenyon, B M, et al., Investigative Ophthalmology & Visual Science, Jul.
In this assay, uniformly sized Hydron™ pellets containing bFGF and sucralfate were prepared and surgically implanted into the stroma mouse cornea adjacent to the temporal limbus. The pellets were formed by making a suspension of 20 μL sterile saline containing […] recombinant bFGF, 10 mg of sucralfate and 10 μL of 12 percent Hydron™ in ethanol. The slurry was then deposited on a 10×10 mm piece of sterile nylon mesh. After drying, the nylon fibers of the mesh were separated to release the pellets.
The corneal pocket was made by anesthetizing a 7 week old C57Bl/6 female mouse, then proptosing the eye with a jeweler's forceps. Using a dissecting microscope, a central, intrastromal linear keratotomy of approximately 0.6 mm in length was performed with a #15 surgical blade, parallel to the insertion of the lateral rectus muscle. Using a modified cataract knife, a lamellar micropocket was dissected toward the temporal limbus. The pocket was extended to within 1.0 mm of the temporal limbus. A single pellet was placed on the corneal surface at the base of the pocket with a jeweler's forceps. The pellet was then advanced to the temporal end of the pocket. Antibiotic ointment was then applied to the eye.
Mice were dosed on a daily basis for the duration of the assay. Dosing of the animals was based on bioavailability and overall potency of the compound. An exemplary dose is 50 mg/kg bid, po. Neovascularization of the corneal stroma begins at about day three and was permitted to continue under the influence of the assayed compound until day five. At day five, the degree of angiogenic inhibition was scored by viewing the neovascular progression with a slit lamp microscope.
The mice were anesthetized and the studied eye was once again proptosed. The maximum vessel length of neovascularization, extending from the limbal vascular plexus toward the pellet was measured. In addition, the contiguous circumferential zone of neovascularization was measured as clock hours, where 30 degrees of arc equals one clock hour. The area of angiogenesis was calculated as follows. [formula]
The studied mice were thereafter compared to control mice and the difference in the area of neovascularization was recorded.

[8] = system: advanced, rapidly progressive, treatment-refractory solid tumor cancers; details: patients with colorectal, pancreatic, ovarian, prostate cancers; cited from earlier work

MMP-3, sequence (P08254 100-477, species assumed): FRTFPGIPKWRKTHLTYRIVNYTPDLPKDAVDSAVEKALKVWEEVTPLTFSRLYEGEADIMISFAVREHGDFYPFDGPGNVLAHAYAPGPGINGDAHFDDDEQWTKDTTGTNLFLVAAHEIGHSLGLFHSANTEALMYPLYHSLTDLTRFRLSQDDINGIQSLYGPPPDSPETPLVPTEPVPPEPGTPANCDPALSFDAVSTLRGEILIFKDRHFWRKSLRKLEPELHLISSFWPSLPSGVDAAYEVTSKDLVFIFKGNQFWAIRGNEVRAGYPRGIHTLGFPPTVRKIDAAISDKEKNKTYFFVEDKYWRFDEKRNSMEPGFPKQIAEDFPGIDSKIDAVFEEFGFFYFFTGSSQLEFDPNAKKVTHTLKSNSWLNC
MMP-9, sequence (P14780 107-707 limits assumed, species assumed): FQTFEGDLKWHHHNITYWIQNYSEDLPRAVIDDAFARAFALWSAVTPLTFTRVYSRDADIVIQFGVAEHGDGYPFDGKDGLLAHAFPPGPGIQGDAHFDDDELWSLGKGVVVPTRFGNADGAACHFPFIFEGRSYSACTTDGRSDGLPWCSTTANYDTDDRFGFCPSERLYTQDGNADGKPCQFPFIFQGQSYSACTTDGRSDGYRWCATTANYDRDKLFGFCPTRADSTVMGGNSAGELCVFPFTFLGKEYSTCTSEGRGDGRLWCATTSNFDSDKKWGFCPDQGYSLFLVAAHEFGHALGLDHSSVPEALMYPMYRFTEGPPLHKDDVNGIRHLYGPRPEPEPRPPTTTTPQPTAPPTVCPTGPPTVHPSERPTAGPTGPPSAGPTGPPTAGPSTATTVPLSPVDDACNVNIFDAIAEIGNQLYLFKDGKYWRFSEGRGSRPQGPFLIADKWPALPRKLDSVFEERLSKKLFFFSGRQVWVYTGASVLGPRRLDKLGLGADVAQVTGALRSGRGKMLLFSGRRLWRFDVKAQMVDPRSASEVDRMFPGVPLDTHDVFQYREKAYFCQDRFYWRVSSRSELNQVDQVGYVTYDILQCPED
MMP-8, sequence (P22894 101-467, species assumed): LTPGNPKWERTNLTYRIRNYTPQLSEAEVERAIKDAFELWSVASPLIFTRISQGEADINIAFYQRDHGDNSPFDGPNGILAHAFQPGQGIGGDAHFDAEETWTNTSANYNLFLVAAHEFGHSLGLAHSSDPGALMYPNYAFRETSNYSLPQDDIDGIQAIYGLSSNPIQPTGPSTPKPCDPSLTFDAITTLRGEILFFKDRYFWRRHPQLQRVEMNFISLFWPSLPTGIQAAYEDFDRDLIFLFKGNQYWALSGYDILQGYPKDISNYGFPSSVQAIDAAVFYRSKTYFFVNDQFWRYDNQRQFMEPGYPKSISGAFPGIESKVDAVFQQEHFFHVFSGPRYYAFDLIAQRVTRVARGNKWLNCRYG

Q: Which IC50 [1] does the source give for Cl.O=C(NO)C(O)(CN1CCOCC1)CS(=O)(=O)c1ccc(Oc2ccccc2)cc1 (stereo not drawn) [Example 3, N,α-dihydroxy-α-[[(4-phenoxyphenyl)sulfonyl]methyl]-4-morpholinepropanamide, monohydrochloride] here?
A: The IC50 was 6000 nM.

Q: And the IC50 [2]?
A: Its IC50 is 3 nM.

Q: What about the IC50 [3] of the same compound?
A: The IC50 was 1 nM.

Q: What about the IC50 [4] of the same compound?
A: Its IC50 is 166 nM.

Q: What about the IC50 [5] of the same compound?
A: Its IC50 is 4 nM.

Q: And the IC50 [6]?
A: Its IC50 is 20 nM.

Q: And the “Percentage of Control” value [7]?
A: The value was 77.4%.

Q: With CC(O)(CS(=O)(=O)c1ccc(NC(=O)c2ccccc2)cc1)C(=O)NO (stereo not shown) [Example 16, N-[4-[[2-hydroxy-3-(hydroxyamino)-2-methyl-3-oxopropyl]-sulfonyl]phenyl]benzamide] as the compound, how does the IC50 [1] read?
A: The IC50 was > 10000 nM.

Q: What about the IC50 [2] of the same compound?
A: Its IC50 is 110 nM.

Q: And the IC50 [3]?
A: Its IC50 is 0.8 nM.

Q: What about the IC50 [6] of the same compound?
A: The IC50 was 1160 nM.

Q: And the “Percentage of Control” value [7]?
A: The value was 41.6%.

Q: Which IC50 [1] does the source give for C[C@](O)(CS(=O)(=O)c1ccc(Oc2ccccc2)cc1)C(=O)NO [Example 1B, (R)—N,2-dihydroxy-2-methyl-3-[(4-phenoxyphenyl)sulfonyl]-propanamide] here?
A: Its IC50 is > 10000 nM.

Q: And the IC50 [2]?
A: Its IC50 is 21.5 nM.

Q: And the IC50 [3]?
A: Its IC50 is 11 nM.

Q: What about the IC50 [6] of the same compound?
A: Its IC50 is 328 nM.

Q: What about the “Percentage of Control” value [7] of the same compound?
A: The value was 49.3%.

Q: Which “effect on cancer-specific antigens used as surrogate markers for biological activity” value [8] does the source give for CNC(=O)[C@@H](NC(=O)[C@H](CC(C)C)[C@H](O)C(=O)NO)C(C)(C)C [marimastat] here?
A: Its value is “dose-related reduction in the rise of cancer-specific antigens”.

Q: What does the source list for C[C@@](O)(CS(=O)(=O)c1ccc(Oc2ccccc2)cc1)C(=O)NO [Example 1A, (S)—N,2-dihydroxy-2-methyl-3-[(4-phenoxyphenyl)sulfonyl]propanamide]?
A: IC50 [1]: 1010 nM; IC50 [2]: 0.75 nM; ratio of inhibition of MMP-1 to inhibition of MMP-13, relative to the compound of opposite configuration ([2]; Example 1A versus Example 1B): about 2 times; IC50 [3]: 0.39 nM; IC50 [6]: 1.7 nM; Percentage of Control [7]: 62.7%

Q: For Cc1ccc(Oc2ccc(S(=O)(=O)CC(O)(CN3CCOCC3)C(=O)NO)cc2)cc1C (stereo not drawn) [Example 7, α-[[[4-(3,4-dimethylphenoxy)-phenyl]sulfonyl]methyl]-N-2-dihydroxy-4-morpholineproanamide], which IC50 [1] is on record?
A: Its IC50 is > 10000 nM.

Q: And the IC50 [2]?
A: The IC50 was 2.1 nM.

Q: What about the IC50 [3] of the same compound?
A: The IC50 was 2 nM.

Q: And the IC50 [4]?
A: The IC50 was 51.8 nM.

Q: And the IC50 [5]?
A: Its IC50 is 4 nM.

Q: What about the IC50 [6] of the same compound?
A: Its IC50 is 13 nM.

Q: Which results are given for Cc1ccc(Oc2ccc(S(=O)(=O)CC(O)(CO)C(=O)NO)cc2)cc1C (stereo not shown) [Example 4, 3-[[4-(3,4-dimethylphenoxy)phenyl]sulfonyl]-N,2-dihydroxy-2-(hydroxymethyl)propanamide]?
A: IC50 [1]: 9000 nM; IC50 [2]: 0.4 nM; IC50 [3]: 0.4 nM; IC50 [4]: 48.5 nM; IC50 [5]: 4.5 nM; IC50 [6]: 12.4 nM; Percentage of Control [7]: 65.2%

Q: For O=C(NO)C(O)CS(=O)(=O)c1ccc(Oc2ccccc2)cc1 (stereo not shown) [Example 9], which IC50 [1] is on record?
A: The IC50 was 3000 nM.

Q: What about the IC50 [2] of the same compound?
A: The IC50 was 0.2 nM.

Q: And the “inhibitory activity against MMP-13 (in words)” value ([2]; discussion of Table 51)?
A: Its value is “excellent activity”.

Q: And the IC50 [3]?
A: The IC50 was 0.4 nM.

Q: And the IC50 [6]?
A: Its IC50 is 16 nM.

Q: And the “Percentage of Control” value [7]?
A: The value was 61.1%.

Q: Which IC50 [1] does the source give for CC(O)(CS(=O)(=O)c1ccc(Oc2ccccc2)cc1)C(=O)NO (stereo not shown) [Example 1, N,2-dihydroxy-2-methyl-3-[(4-phenoxyphenyl)sulfonyl]propanamide] here?
A: The IC50 was 1100 nM.

Q: What about the IC50 [2] of the same compound?
A: Its IC50 is 1.1 nM.

Q: What about the IC50 [3] of the same compound?
A: The IC50 was 0.5 nM.

Q: And the IC50 [4]?
A: The IC50 was 30 nM.

Q: And the IC50 [5]?
A: Its IC50 is 2.5 nM.

Q: And the IC50 [6]?
A: The IC50 was 4.8 nM.

Q: What about the “Percentage of Control” value [7] of the same compound?
A: Its value is 51.9%.

Q: Which results are given for O=C(NO)C(O)(CO)CS(=O)(=O)c1ccc(Oc2ccccc2)cc1 (stereo not shown) [Example 2, N,2-dihydroxy-2-(hydroxymethyl)-3-[(4-phenoxyphenyl)-sulfonyl]propanamide]?
A: IC50 [1]: 470 nM; IC50 [2]: 1.2 nM; IC50 [3]: 1 nM; IC50 [4]: 44 nM; IC50 [5]: 4.1 nM; IC50 [6]: 7 nM; Percentage of Control [7]: 53.4%

Q: With Cc1ccc(Oc2ccc(S(=O)(=O)CC(C)(O)C(=O)NO)cc2)cc1C (stereo not shown) [Example 5, 3-[[4-(3,4-dimethylphenoxy)phenyl]sulfonyl]-N,2-dihydroxy-2-methylpropanamide] as the compound, how does the IC50 [1] read?
A: The IC50 was > 10000 nM.

Q: What about the IC50 [2] of the same compound?
A: The IC50 was 1.3 nM.

Q: And the IC50 [3]?
A: The IC50 was 2.4 nM.

Q: What about the IC50 [4] of the same compound?
A: Its IC50 is 26.8 nM.

Q: And the IC50 [5]?
A: Its IC50 is 2.5 nM.

Q: And the IC50 [6]?
A: Its IC50 is 3.4 nM.

Q: And the “Percentage of Control” value [7]?
A: Its value is 57.8%.
